Experimental data as given in patent US20240390529A1, “DUAL-MODE PROBE FOR DETECTING HYDROGEN SULFIDE AND USE THEREOF” (KYUNGPOOK NATIONAL UNIVERSITY INDUSTRY-ACADEMIC COOPERATION …, priority 2022, published 2024).

Assays:
H2S in HeLa cells = assay: Fluorescence imaging of exogenous and endogenous H2S in live HeLa cells; assay type: cell-based, human; details: 450 μM, HeLa cells probed with Cu-ATSM-FITC(5)
Source text: Next, we investigated the usefulness of Cu-ATSM-FITC(5) for monitoring H2S levels in living cells (FIG. 14).

[1] = system: H2S concentration in brain tissues; assay: Quantification of H2S in brain by methylene blue method; assay type: in vivo, mice
Protocol: The methylene blue method was used to directly measure H2S concentration in brain tissues. Briefly, PET imaging was performed, brains were harvested, weighed, and homogenized in liquid N2. An ice-cold PBS solution in a volume equivalent to the weight of the homogenate (w/v, approximately 260 to 300 mg) was added, followed by vortex for 3 min and centrifugation (14,000 rpm, 5 min, 4° C.). Then, 100 μL of the supernatant was incubated together with 100 μL of 1% zinc acetate dihydrate at 37° C. for 10 minutes to immobilize H2S. 100 μL of 0.1 M sodium tetraborate buffer (pH 9) and 200 μL of 20 mM N, N-dimethyl-p-phenylenediamine sulfate were added to 7.2 M HCl, and 200 μL of 30 mM iron (III) chloride was added to 1.2 M HCl, and the mixture was incubated at 37° C. for 15 min to form methylene blue dyes. The mixture was centrifuged again (14,000 rpm, 5 minutes, 4° C.). 100 μL of supernatant was transferred in triplicate to 96-well plates, and absorbance was recorded spectrophotometrically at 670 nm. The H2S concentration was calculated by using a standard curve obtained by plotting absorbance (A670) versus NaHS concentration (0 to 30 μM). For quantification of H2S in the left and right hemispheres of the brains, PET imaging was performed, and only the cerebral hemispheres were harvested and processed separately. […]

[2] = Optical properties (UV-Vis absorbance, fluorescence emission); assay type: physicochemical
Protocol: The optical properties of the free ligand ATSM-FITC (4) were evaluated. […] When H2S sequestered Cu(II) ions from the copper complex (5) and precipitated CuS, the ATSM-FITC ligand was released and fluorescence was emitted (FIG. 7).

[3] = system: human embryonic kidney cells (HEK293); assay: MTT cytotoxicity analysis, HEK293; assay type: cell-based
Protocol: (§1) The cytotoxicity of Cu-ATSM-FITC(5) was evaluated through 3-(4,5-dimethyl-2-thiazolyl)-2,5-diphenyltetrazolium bromide (MTT; sigma-aldrich) analysis. Human cervical cancer cells (HeLa), human hepatoma cells (HepG2), and human embryonic kidney cells (HEK293) were prepared in 96-well plates at a density of 10,000 cells per well. As compared to the control group treated with PBS alone, they were treated with Cu-ATSM-FITC (5) at increasing concentrations of 1, 10, and 25 μM. Afterwards, they were incubated for 1, 4, and 24 hours (37° C., 5% CO2), respectively. For each treatment time, each well was added with 10 μL of MTT (5 mg/mL in PBS) solution and incubated for 3 hours. The supernatant was carefully aspirated, and the purple insoluble formazan crystals in the wells were dissolved using DMSO for 30 minutes. Absorbance was measured at 550 nm using a spectrophotometer (SPECTROstar Nano, BMG Labtech, Ortenberg, Germany). CuS was also performed four times in a similar manner by using HeLa, HEK293, HepG2, and human brain glioblastoma (U87MG) cells.

[4] = system: Human cervical cancer cells (HeLa); assay: MTT cytotoxicity analysis, HeLa; assay type: cell-based; details: HeLa
Protocol: as §1

[5] = system: human hepatoma cells (HepG2); assay: MTT cytotoxicity analysis, HepG2; assay type: cell-based
Protocol: as §1

[6] = system: human brain glioblastoma (U87MG) cells; assay: MTT cytotoxicity analysis, U87MG; assay type: cell-based
Protocol: as §1

[7] = Biodistribution in normal BALB/c mice (γ-counter); assay type: in vivo; details: 4 hours after administration
Protocol: BALB/c mice (male, 9 weeks old) were used to investigate the systemic distribution and clearance rate of ^64Cu-ATSM-FITC (6). ^64Cu-ATSM-FITC (6) with a radioactivity of 0.56 to 0.74 MBq in a saline solution (5% DMSO, 200 μL) was injected into mice through the tail vein under anesthesia. […] Blood was drawn, and organs comprising heart, lung, muscle, fat, bone, spleen, kidney, liver, intestine, and brain were harvested, weighed, and analyzed by using a γ-counter (Wallac Wizard 1480, PerkinElmer, France). Radioactivity was calculated as percentage of injected dose per gram (% ID/g).
The distribution of ^64Cu-ATSM-aniline in the body was confirmed by using the same method as described in Experimental Methods 5 and 7 above.

Question: Which “green fluorescence due to endogenous H2S after CSE blockade” value (H2S in HeLa cells) does the source give for `C#CCC(N)C(=O)O` (racemic) [DL-propargylglycine, reference compound] here?
Answer: completely reduced

Question: With `Cl.NOCC(=O)O.NOCC(=O)O` [AOAA] as the compound, how does the “reduction of H2S concentration in the brain compared to controls” value ([1]; 10 mg/kg intraperitoneal, mice) read?
Answer: 32%

Question: What about the “H2S concentration in the brain” value ([1]; AOAA-treated mice) of the same compound?
Answer: 2.1±0.5 μg/g brain

Question: What does the source list for `CNC(=S)N/N=C(C)/C(C)=N/NC(=S)Nc1ccc(-c2c3ccc(=O)cc-3oc3cc(O)ccc23)c(C(=O)O)c1` [ATSM-FITC (4), 2-(6-hydroxy-3-oxo-3H-xanthen-9-yl)-5-((E)-2-((E)-3-(2-(methylcarbamothioyl)hydrazono)butan-2-ylidene)hydrazinecarbothioamido)benzoic Acid]?
Answer: absorbance band ([2]; UV-Vis spectroscopy): 494 nm; maximum fluorescence emission ([2]; excitation at 480 nm): 524 nm

Question: What does the source list for `[S]=[Cu]` [CuS, copper sulfide]?
Answer: cytotoxicity [3]: no cytotoxicity was found; cytotoxicity [4]: no cytotoxicity was found; cytotoxicity [5]: no cytotoxicity was found; cytotoxicity [6]: no cytotoxicity was found

Question: With `CNC([S-])=NN=C(C)C(C)=NN=C([S-])Nc1ccc(N(C)C)cc1.[64Cu+2]` [^64Cu-ATSM-aniline, reference compound] as the compound, how does the “distribution in the brain” value [7] read?
Answer: very low

Question: And the “organs of widest distribution” value [7]?
Answer: lungs and liver
